These results are taken from patent US20100210649A1, “PYRIDAZINONES AND FURAN-CONTAINING COMPOUNDS” (Sloan-Kettering Institute for Cancer Research, priority 2006, published 2010).

The structures appear in SMILES notation. Several values for one entry are separate records, joined by “and”; a condition that tells them apart may be missing. Identical values can stand only once. Like-named read-outs stand apart in the source and are kept apart here.

One assay relates to H1650. In words: Non Small Cell Lung Cancer proliferation assay (Alamar Blue reduction), H1650. It counts as cell-based, human. In outline:
(§1)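 Human NSCLC cells were seeded at 250 cells/well with compound at a final 1% DMSO and treated for 48 hours at 37° C. 1% DMSO served as the high control.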
(Resazurin is reduced to fluorescent resorufin, in cell work by metabolically active cells.)

For the next assay, the system named is H1975. In words: Non Small Cell Lung Cancer proliferation assay (Alamar Blue reduction), H1975. It counts as cell-based, human. In outline:
as §1

Another assay has as its system H2030. The experiment in a line: Non Small Cell Lung Cancer proliferation assay (Alamar Blue reduction), H2030. The format is cell-based, human. In outline:
as §1

A further assay has as its system H3255. The experiment in a line: Non Small Cell Lung Cancer proliferation assay (Alamar Blue reduction), H3255. It counts as cell-based, human. The essentials: as §1
The test system of the next assay is H358. The experiment in a line: Non Small Cell Lung Cancer proliferation assay (Alamar Blue reduction), H358. It counts as cell-based. To be noted: Homo sapiens, NCI-H358. In outline: as §1
Assay [1] deals with HPL1D (human peripheral lung epithelial) cell line. The experiment in a line: Cell proliferation / dose response (Alamar Blue), HPL1D. The format is cell-based. To be noted: HPL1D, 12 point doubling dilution 10 uM to 5 nM, 48 h treatment, alamar blue additional 48 h, read-out: IC50 HPL1D. As to the method: WI-38: human lung fibroblast cell line. […] WT: wildtype; WT*: over-expressed wildtype. Dose response studies against 34 compounds from the pyridazinone and phenylfuran-carboxamide class were conducted. […] In addition, Tarceva was included in these dose response studies. The dose response studies were done with the following standard procedure. […] The cells were incubated for 48 hours at 37 C to complete treatment, and then alamar blue was added for an additional 48 hours. Finally, alamar blue reduction was measured and the data was loaded into ORIS, our data screening acquisition platform.

The test system of another assay is H820. In words: Dose response study (Alamar Blue), H820. It counts as cell-based. The note with it: Homo sapiens, NCI-H820; H820; 12 point doubling dilution 10 uM to 5 nM; 48 h treatment, alamar blue additional 48 h; read-out: IC50 H820. As to the method:
(§2) Dose response studies against 34 compounds from the pyridazinone and phenylfuran-carboxamide class were conducted. […] In addition, Tarceva was included in these dose response studies.
(§3) The dose response studies were done with the following standard procedure. First, the cells were counted and dispensed at 250 cells/well into 384-well microplates with compound. The cells were incubated for 48 hours at 37 C to complete treatment, and then alamar blue was added for an additional 48 hours. Finally, alamar blue reduction was measured and the data was loaded into ORIS, our data screening acquisition platform.

The subject of a further assay is H23. The experiment in a line: Dose response study (Alamar Blue), H23. It counts as cell-based. The note with it: Homo sapiens, NCI-H23; H23; 12 point doubling dilution 10 uM to 5 nM; 48 h treatment, alamar blue additional 48 h; read-out: IC50 H23. Here is the method:
as §2, §3

The subject of the next assay is H2122. The experiment in a line: Dose response study (Alamar Blue), H2122. It counts as cell-based. To be noted: Homo sapiens, NCI-H2122; H2122; 12 point doubling dilution 10 uM to 5 nM; 48 h treatment, alamar blue additional 48 h; read-out: IC50 H2122. As to the method: as §2, §3
In the next assay the test system is H2444. In words: Dose response study (Alamar Blue), H2444. It counts as cell-based. To be noted: Homo sapiens, NCI-H2444; H2444; 12 point doubling dilution 10 uM to 5 nM; 48 h treatment, alamar blue additional 48 h; read-out: IC50 H2444. As to the method:
as §2, §3

Setting [2] is: Homo sapiens, NCI-H1650, 48 h, H1650, 12 point doubling dilution 10 uM to 5 nM, 48 h treatment, alamar blue additional 48 h, read-out: IC50 H1650.
Setting [3] is: Homo sapiens, NCI-H1650, dose response 10 M to 5 nM, IC50, read-out: Dose Response (uM) H1650.
Where [4] appears, read: Homo sapiens, NCI-H1975, 48 h, H1975, 12 point doubling dilution 10 uM to 5 nM, 48 h treatment, alamar blue additional 48 h, read-out: IC50 H1975.
Setting [5] is: Homo sapiens, NCI-H1975, dose response 10 M to 5 nM, IC50, read-out: Dose Response (uM) H1975.
Where [6] appears, read: Homo sapiens, NCI-H2030, 48 h, H2030, 12 point doubling dilution 10 uM to 5 nM, 48 h treatment, alamar blue additional 48 h, read-out: IC50 H2030.
[7] abbreviates: Homo sapiens, NCI-H2030, dose response 10 M to 5 nM, IC50, read-out: Dose Response (uM) H2030.
Where [8] appears, read: Homo sapiens, NCI-H3255, 48 h, H3255, 12 point doubling dilution 10 uM to 5 nM, 48 h treatment, alamar blue additional 48 h, read-out: IC50 H3255.
The mark [9] stands for this setting: Homo sapiens, NCI-H3255, dose response 10 M to 5 nM, IC50, read-out: Dose Response (uM) H3255.
[10] abbreviates: H358, 12 point doubling dilution 10 uM to 5 nM, 48 h treatment, alamar blue additional 48 h, read-out: IC50 H358.
[11] abbreviates: read-out: Dose Response (uM) H358.
[12] abbreviates: percentage inhibition, 10 μM compound in 1% DMSO (v/v).

Regarding `CCc1cccc(-n2ncc(Cl)c(Cl)c2=O)c1` [compound 267062], the IC50 amounted to 1.91 µM in the assay on H1650 (setting [2]); 2.48 µM in the assay on H1650 (setting [3]); 0.47 µM in the assay with H1975 (setting [4]); 0.46 µM in the assay with H1975 (setting [5]); 0.54 µM in the assay on H2030 (setting [6]); 0.72 µM in the assay on H2030 (setting [7]). The IC50 in the assay on H3255 (setting [8]) was found to be 1.51 µM; in the assay with H3255 (setting [9]) it was 1.5 µM; with H358 (setting [10]), 0.66 µM; in the assay with H358 (setting [11]), 0.24 µM; in [1] it was 380 nM; in the assay with H820, 450 nM. The IC50 with H23 worked out at 390 nM; in the assay on H2122, 2550 nM; in the assay with H2444 it was 430 nM.

With `Cc1cccc(-n2ncc(Cl)c(Cl)c2=O)c1C` [compound 257018], the IC50 is 1.69 µM with H1650 (setting [2]); 2.42 µM in the assay on H1650 (setting [3]); 0.54 µM in the assay on H1975 (setting [4]); 0.35 µM with H1975 (setting [5]); 0.9 µM with H2030 (setting [6]); 0.89 µM with H2030 (setting [7]). For the same compound, the IC50 in the assay on H3255 (setting [8]) turned out to be 1.86 µM; with H3255 (setting [9]) it was 1.63 µM; in the assay with H358 (setting [10]), 1.13 µM; with H358 (setting [11]), 0.55 µM; in assay [1] it was 1300 nM; in the assay on H820, 340 nM. The results for the IC50 in the assay with H23, with H2122 and in the assay with H2444 were 240 nM, 2160 nM and 850 nM, respectively.

Turning to `COc1cccc(-n2ncc(Cl)c(Cl)c2=O)c1` [compound 267061], the IC50 with H1650 (setting [2]) worked out at 1.96 µM; in the assay on H1650 (setting [3]) it was 3.52 µM; in the assay on H1975 (setting [4]) it was 0.31 µM; in the assay on H1975 (setting [5]) it was 0.37 µM; in the assay on H2030 (setting [6]) it was 0.36 µM; with H2030 (setting [7]) it was 0.72 µM. In addition, the IC50 was determined as 1.2 µM in the assay on H3255 (setting [8]); 1.34 µM in the assay on H3255 (setting [9]); 0.46 µM in the assay with H358 (setting [10]); 0.24 µM in the assay with H358 (setting [11]); 290 nM in assay [1]; 260 nM in the assay with H820. Besides, the IC50 came to 280 nM with H23, 1200 nM in the assay on H2122 and 370 nM in the assay with H2444.

Broadly, the inhibition is the relative decrease from the control value, in per cent. Consider `Cc1cccc(NC(=O)c2ccc([N+](=O)[O-])o2)c1` [compound 71762], for which the IC50 with H1650 (setting [2]) was found to be 0.63 µM; in the assay with H1650 (Homo sapiens, NCI-H1650, phenylfuran-2-carboxamide SAR summary, read-out: IC50(uM) 1650), 0.43 µM; in the assay with H1650 (phenylfuran-2-carboxamide SAR summary, read-out: IC50(uM) 1650), 0.41 µM; in the assay on H1975 (setting [4]) it was 4.23 µM; in the assay on H1975 (Homo sapiens, NCI-H1975, phenylfuran-2-carboxamide SAR summary, read-out: IC50(uM) 1975), 1.24 µM; in the assay with H1975 (phenylfuran-2-carboxamide SAR summary, read-out: IC50(uM) 1975), 1.23 µM. The IC50 in the assay with H2030 (setting [6]) is 0.99 µM; in the assay with H2030 (Homo sapiens, NCI-H2030, phenylfuran-2-carboxamide SAR summary, read-out: IC50(uM) 2030) it was 1.43 µM; in the assay with H2030 (phenylfuran-2-carboxamide SAR summary, read-out: IC50(uM) 2030), 1.46 µM; in the assay on H3255 (setting [8]), 2.41 µM; with H3255 (Homo sapiens, NCI-H3255, phenylfuran-2-carboxamide SAR summary, read-out: IC50(uM) 3255), 0.95 µM; with H3255 (phenylfuran-2-carboxamide SAR summary, read-out: IC50(uM) 3255), 1.01 µM. The IC50 in the assay with H358 (setting [10]) was 1.27 µM; in [1] it was over 10000 nM; with H820 it was 3610 nM; with H23, 830 nM; in the assay on H2122 it was 4830 nM; in the assay with H2444, 3800 nM. For the same compound, the inhibition at 10 µM in the assay on H1650 (Homo sapiens, NCI-H1650, primary screening, H1650, 10 μM compound in 1% DMSO (v/v), read-out: PRIMARY HTS [%] H1650 (percentage inhibition)) stood at 104%; with H1975 (Homo sapiens, NCI-H1975, primary screening, H1975, 10 μM compound in 1% DMSO (v/v), read-out: PRIMARY HTS [%] H1975 (percentage inhibition)), 74%; in the assay on H2030 (Homo sapiens, NCI-H2030, primary screening, H2030, 10 μM compound in 1% DMSO (v/v), read-out: PRIMARY HTS [%] H2030 (percentage inhibition)) it was 101%; with H3255 (Homo sapiens, NCI-H3255, primary screening, H3255, 10 μM compound in 1% DMSO (v/v), read-out: PRIMARY HTS [%] H3255 (percentage inhibition)), 100%. For the same compound, in the assay on H1650 (setting [12]), the “CONFIRMATION [%] 1650” value was 135% and 106%. Also, the “CONFIRMATION [%] 1975” value in the assay on H1975 (setting [12]) was 59% and 76%. In addition, the “CONFIRMATION [%] 2030” value in the assay with H2030 (setting [12]) is 103%. Further, the “CONFIRMATION [%] 3255” value in the assay on H3255 (setting [12]) is 122% and 97%.
